Reference: PubChem BioAssay (NCI)
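1) Cells in 96-well plates. 2) Compound, 48 h, 5 concentrations. 3) Linear interpolation between surrounding doses. 4) Unreached endpoint = highest concentration. The concentration for 50% growth inhibition is given as GI50. Definition used: TGI = concentration required for complete inhibition of growth.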

Assays:
Test in all cases: DTP human tumour cell line panel, 48 h
SNB-19 CNS = system: SNB-19 CNS
MALME-3M melanoma = system: MALME-3M melanoma
HL-60(TB) leukemia = system: HL-60(TB) leukemia
HT29 colon = system: HT29 colon
MCF7 breast = system: MCF7 breast
RXF 393 renal = system: RXF 393 renal
SK-OV-3 ovarian = system: SK-OV-3 ovarian
IGROV1 ovarian = system: IGROV1 ovarian
CCRF-CEM leukemia = system: CCRF-CEM leukemia
SW-620 colon = system: SW-620 colon
HS 578T breast = system: HS 578T breast
OVCAR-5 ovarian = system: OVCAR-5 ovarian
BT-549 breast = system: BT-549 breast
NCI/ADR-RES ovarian = system: NCI/ADR-RES ovarian
PC-3 prostate = system: PC-3 prostate
LOX IMVI melanoma = system: LOX IMVI melanoma
OVCAR-4 ovarian = system: OVCAR-4 ovarian
UACC-62 melanoma = system: UACC-62 melanoma
COLO 205 colon = system: COLO 205 colon
UACC-257 melanoma = system: UACC-257 melanoma
NCI-H522 lung = system: NCI-H522 lung
NCI-H226 lung = system: NCI-H226 lung
UO-31 renal = system: UO-31 renal
NCI-H460 lung = system: NCI-H460 lung
NCI-H23 lung = system: NCI-H23 lung
SNB-75 CNS = system: SNB-75 CNS
OVCAR-8 ovarian = system: OVCAR-8 ovarian
SF-268 CNS = system: SF-268 CNS
HCT-116 colon = system: HCT-116 colon
SK-MEL-28 melanoma = system: SK-MEL-28 melanoma
SN12C renal = system: SN12C renal
RPMI-8226 leukemia = system: RPMI-8226 leukemia
DU-145 prostate = system: DU-145 prostate
MOLT-4 leukemia = system: MOLT-4 leukemia
M14 melanoma = system: M14 melanoma
SK-MEL-5 melanoma = system: SK-MEL-5 melanoma
MDA-MB-435 = system: MDA-MB-435
HCC-2998 colon = system: HCC-2998 colon
786-0 renal = system: 786-0 renal
TK-10 renal = system: TK-10 renal
SF-295 CNS = system: SF-295 CNS
SK-MEL-2 melanoma = system: SK-MEL-2 melanoma
T-47D breast = system: T-47D breast
SF-539 CNS = system: SF-539 CNS
A498 renal = system: A498 renal
U251 CNS = system: U251 CNS
HOP-92 NSCLC = system: HOP-92 NSCLC
MDA-MB-231 breast = system: MDA-MB-231 breast
OVCAR-3 ovarian = system: OVCAR-3 ovarian
HOP-62 NSCLC = system: HOP-62 NSCLC
A549 NSCLC = system: A549 NSCLC
ACHN renal = system: ACHN renal
CAKI-1 renal = system: CAKI-1 renal
KM12 colon = system: KM12 colon
EKVX NSCLC = system: EKVX NSCLC
HCT-15 colon = system: HCT-15 colon

With CC1(C)CCC2(CC1)N[C@@H](C(=O)N[C@@H]1CC[C@@H](C(N)=O)OC1)[C@H](c1ccnc(Cl)c1F)[C@]21C(=O)Nc2cc(Cl)ccc21 the GI50 (SNB-19 CNS) was 3.38 µM, the TGI (SNB-19 CNS) was 15.2 µM and the GI50 (MALME-3M melanoma) was 0.0482 µM. It also gave a TGI (MALME-3M melanoma) of 2.03 µM, a GI50 (HL-60(TB) leukemia) of 2.36 µM and a TGI (HL-60(TB) leukemia) of 5.59 µM. For the same compound, the GI50 (HT29 colon) was 2.22 µM, the TGI (HT29 colon) was 6.01 µM and the GI50 (MCF7 breast) was 0.037 µM. For the same compound, the TGI (MCF7 breast) was 2.28 µM, the GI50 (RXF 393 renal) was 2.26 µM and the TGI (RXF 393 renal) was 5.67 µM. It also gave a GI50 (SK-OV-3 ovarian) of 3 µM, a TGI (SK-OV-3 ovarian) of 9.27 µM and a GI50 (IGROV1 ovarian) of 0.793 µM. It also gave a TGI (IGROV1 ovarian) of 6.13 µM, a GI50 (CCRF-CEM leukemia) of 3.01 µM and a TGI (CCRF-CEM leukemia) of 13.3 µM. The GI50 (SW-620 colon) was 3.81 µM, the TGI (SW-620 colon) was 23.1 µM and the GI50 (HS 578T breast) was 2.33 µM. It also gave a TGI (HS 578T breast) of 10.4 µM, a GI50 (OVCAR-5 ovarian) of 2.15 µM and a TGI (OVCAR-5 ovarian) of 5.9 µM. The GI50 (BT-549 breast) was 2.45 µM, the TGI (BT-549 breast) was 7.52 µM and the GI50 (NCI/ADR-RES ovarian) was 16.3 µM. For the same compound, the TGI (NCI/ADR-RES ovarian) was 45.5 µM, the GI50 (PC-3 prostate) was 2.26 µM and the TGI (PC-3 prostate) was 6.25 µM. It also gave a GI50 (LOX IMVI melanoma) of 0.124 µM, a TGI (LOX IMVI melanoma) of 2 µM and a GI50 (OVCAR-4 ovarian) of 3.19 µM. The TGI (OVCAR-4 ovarian) was 14.1 µM, the GI50 (UACC-62 melanoma) was 0.0556 µM and the TGI (UACC-62 melanoma) was 2.05 µM. For the same compound, the GI50 (COLO 205 colon) was 2.11 µM, the TGI (COLO 205 colon) was 5.39 µM and the GI50 (UACC-257 melanoma) was 0.19 µM. For the same compound, the TGI (UACC-257 melanoma) was 2.53 µM, the GI50 (NCI-H522 lung) was 2.01 µM and the TGI (NCI-H522 lung) was 4.46 µM. The GI50 (NCI-H226 lung) was 0.0935 µM, the TGI (NCI-H226 lung) was 0.804 µM and the GI50 (UO-31 renal) was 0.261 µM. It also gave a TGI (UO-31 renal) of 3.04 µM, a GI50 (NCI-H460 lung) of 0.179 µM and a TGI (NCI-H460 lung) of 2.05 µM. It also gave a GI50 (NCI-H23 lung) of 3.73 µM, a TGI (NCI-H23 lung) of 15.4 µM and a GI50 (SNB-75 CNS) of 2.17 µM. It also gave a TGI (SNB-75 CNS) of 9.38 µM, a GI50 (OVCAR-8 ovarian) of 3.92 µM and a TGI (OVCAR-8 ovarian) of 27.7 µM. For the same compound, the GI50 (SF-268 CNS) was 3.5 µM, the TGI (SF-268 CNS) was 19.1 µM and the GI50 (HCT-116 colon) was 0.07 µM. The TGI (HCT-116 colon) was 6.96 µM, the GI50 (SK-MEL-28 melanoma) was 1.95 µM and the TGI (SK-MEL-28 melanoma) was 4.06 µM. The GI50 (SN12C renal) was 3.13 µM, the TGI (SN12C renal) was 12 µM and the GI50 (RPMI-8226 leukemia) was 2.12 µM. It also gave a TGI (RPMI-8226 leukemia) of 5.57 µM, a GI50 (DU-145 prostate) of 3.94 µM and a TGI (DU-145 prostate) of 16.1 µM. The GI50 (MOLT-4 leukemia) was 0.107 µM, the TGI (MOLT-4 leukemia) was 3.13 µM and the GI50 (M14 melanoma) was 2.14 µM. The TGI (M14 melanoma) was 5.63 µM, the GI50 (SK-MEL-5 melanoma) was 0.743 µM and the TGI (SK-MEL-5 melanoma) was 2.17 µM. The GI50 (MDA-MB-435) was 2.44 µM, the TGI (MDA-MB-435) was 6.22 µM and the GI50 (HCC-2998 colon) was 1.7 µM. For the same compound, the TGI (HCC-2998 colon) was 3.21 µM, the GI50 (786-0 renal) was 2.77 µM and the TGI (786-0 renal) was 8.51 µM. For the same compound, the GI50 (TK-10 renal) was 3.13 µM, the TGI (TK-10 renal) was 15.7 µM and the GI50 (SF-295 CNS) was 2.14 µM. It also gave a TGI (SF-295 CNS) of 5.04 µM, a GI50 (SK-MEL-2 melanoma) of 2.16 µM and a TGI (SK-MEL-2 melanoma) of 5.02 µM. It also gave a GI50 (T-47D breast) of 2.58 µM, a TGI (T-47D breast) of 7.85 µM and a GI50 (SF-539 CNS) of 1.93 µM. The TGI (SF-539 CNS) was 4.66 µM, the GI50 (A498 renal) was 0.111 µM and the TGI (A498 renal) was 3.95 µM. It also gave a GI50 (U251 CNS) of 2.8 µM, a TGI (U251 CNS) of 9.64 µM and a GI50 (HOP-92 NSCLC) of 1.78 µM. It also gave a TGI (HOP-92 NSCLC) of 4.79 µM, a GI50 (MDA-MB-231 breast) of 1.92 µM and a TGI (MDA-MB-231 breast) of 3.98 µM. The GI50 (OVCAR-3 ovarian) was 2.75 µM, the TGI (OVCAR-3 ovarian) was 8.2 µM and the GI50 (HOP-62 NSCLC) was 2.31 µM. The TGI (HOP-62 NSCLC) was 7.83 µM, the GI50 (A549 NSCLC) was 0.26 µM and the TGI (A549 NSCLC) was 13.1 µM. For the same compound, the GI50 (ACHN renal) was 0.139 µM, the TGI (ACHN renal) was 2.28 µM and the GI50 (CAKI-1 renal) was 0.0622 µM. It also gave a TGI (CAKI-1 renal) of 4.15 µM, a GI50 (KM12 colon) of 2.39 µM and a TGI (KM12 colon) of 6.23 µM. The GI50 (EKVX NSCLC) was 2.38 µM, the TGI (EKVX NSCLC) was 7.6 µM and the GI50 (HCT-15 colon) was 2.88 µM. It also gave a TGI (HCT-15 colon) of 10.1 µM.
